Test results from US20200093103A1, “BREEDING WATER FOR ANGUILLIFORMES AND METHOD FOR REARING ANGUILLIFORMES” (SHIN NIPPON BIOMEDICAL LABORATORIES, LTD., priority 2016, published 2020).

Test system: Anguilla japonica leptocephali
Assay: Induction of Anguilla japonica metamorphosis by T4 treatment in 23° C. breeding water
Assay type: in vivo
Design: key: L: During life, no characteristics of metamorphosis seen.; Stage 1: Starting phase of metamorphosis. The rostral end is rounded, and intestinal degeneration starts.; Stage 2: Peak phase of metamorphosis. Intestinal degeneration becomes pronounced.; Stage 3: Late phase of metamorphosis.; Stage 4: Pre-glass eel stage. Almost the eel form, but the body height still remains
From the text: Stage 1: Starting phase of metamorphosis. The rostral end is rounded, and intestinal degeneration starts.
Stage 2: Peak phase of metamorphosis. Intestinal degeneration becomes pronounced. In the second half, the anus reaches to near the last vertical blood vessel (VBV last).
Stage 3: Late phase of metamorphosis. The preanal length (PAL) becomes equal to or shorter than the last vertical blood vessel length (VBV last Length) (PAL VBV last Length). The body height is apparently low.
Stage 4: Pre-glass eel stage. Almost the eel form, but the body height still remains. Melanophores on the body surface or endogenous melanophores are not yet seen.
Elver stage: Juvenile stage. Food intake can be identified.
A thyroid hormone (e.g., thyroxine (T4)) is adjusted to 50 to 100 mM in a 1- to 2-mL volume messflask. As a solvent, known solvents (water, alcohol) can be used. Ethanol is preferably used as the solvent.
For example, using ethanol as a solvent, T4 adjusted to 50 mM is diluted 500-fold, 5,000-fold, and 50,000-fold, respectively, and adjusted to […], 1 μM, and 100 nM. A feed can be prepared in this manner.
Artificial seawater is added to a breeding vessel, and 1/1000 of the […] T4 is added to prepare […] T4 breeding water.
Half of the breeding water is replaced every two days with breeding water of the same concentration. In the case where the concentration is changed, for example, in the case of changing from 10 nM to 2 nM, 80% to the breeding water is removed, and unadjusted artificial seawater is newly added to make 1 L.
Leptocephali visually considered to have reached a total length of 40 mm (or may be 30 mm to 50 mm, may be 35 mm to 45 mm, or may also be 35 mm or more, 40 mm or more, or 45 mm or more) are selected, anesthetized with 2-phenoxyethanol, and then photographed, and the total length of each larva is measured using an image analyzing device.
The larvae are placed in 10 nM T4 breeding water and then placed in an incubator set at 23° C., and breeding is started. In first one week, observation is performed every two days, and half of the 10 nM T4 breeding water is replaced each time. The average amount of thyroid hormone in the breeding water in stage 1 is 1 nM to 100 nM, for example, and may also be 3 nM to 30 nM, or 5 nM to 20 nM.
For larvae visually judged to have reached the second half of stage 2, the concentration of the breeding water is changed. The breeding water is diluted 5-fold or 10-fold and adjusted to 2 nM or 1 nM T4, and breeding is continued. The average amount of thyroid hormone in the breeding water in stage 2 may be, as compared with the breeding water of stage 1, diluted 2-fold to 20-fold, diluted 3 to 15-fold, or diluted 5 to 10-fold as described above. The average amount of thyroid hormone in the breeding water in stage 2 is 0.1 nM to 20 nM, for example, and may also be 0.5 nM to 10 nM, 1 nM to 5 nM, or 1 nM to 2 nM.
For larvae visually judged to have reached stage 3, the breeding water is quickly changed 0.2 nM T4 breeding water, which is a 5-fold dilution of 1 nM T4 breeding water, and further changed to 0.1 nM T4 breeding water on the following day. […] Also, in larvae whose anus position has not reached the last vertical hemal spine, when they are judged to be on the brink of stage 3, the concentration is changed as above. The average amount of thyroid hormone in the breeding water in stage 3 may be, as compared with the breeding water of stage 2, diluted 2-fold to 50-fold, diluted 3 to 15-fold, diluted 4 to 6-fold, or diluted 5-fold as described above. The average amount of thyroid hormone in the breeding water in stage 3 is 0.01 nM to 2 nM, for example, and may also be 0.05 nM to 1 nM, 0.1 nM to 0.5 nM, or 0.1 nM to 0.2 nM. […] That is, the concentration may be changed such that the thyroid hormone becomes undetectable in the breeding water in the course of stage 3.
In stage 3, breeding is continuously performed in the 0.1 nM T4 breeding water. […]

SMILES: N[C@@H](Cc1cc(I)c(Oc2cc(I)c(O)c(I)c2)c(I)c1)C(=O)O [T4, thyroxine]
- metamorphosis stage (individual Exp. 5-6, 174 days old, total length 34.5 mm at start, c3 onward = treatment days 1,3,5,7,8,9,10,11,12,13,14,15,16,17,18,20,22, T4 (nM) 10,10,10,10,10,10,10,2,1,1,0.2,0.1,0.1,0.1,0.1,0.1,0.1, treatment day 11, T4 2 nM): 2
- metamorphosis stage (individual Exp. 5-6, 174 days old, total length 34.5 mm at start, c3 onward = treatment days 1,3,5,7,8,9,10,11,12,13,14,15,16,17,18,20,22, T4 (nM) 10,10,10,10,10,10,10,2,1,1,0.2,0.1,0.1,0.1,0.1,0.1,0.1, treatment day 12, T4 1 nM): 2
- metamorphosis stage (individual Exp. 5-6, 174 days old, total length 34.5 mm at start, c3 onward = treatment days 1,3,5,7,8,9,10,11,12,13,14,15,16,17,18,20,22, T4 (nM) 10,10,10,10,10,10,10,2,1,1,0.2,0.1,0.1,0.1,0.1,0.1,0.1, treatment day 13, T4 1 nM): 2
- metamorphosis stage (individual Exp. 5-6, 174 days old, total length 34.5 mm at start, c3 onward = treatment days 1,3,5,7,8,9,10,11,12,13,14,15,16,17,18,20,22, T4 (nM) 10,10,10,10,10,10,10,2,1,1,0.2,0.1,0.1,0.1,0.1,0.1,0.1, treatment day 14, T4 0.2 nM): 3
- metamorphosis stage (individual Exp. 5-6, 174 days old, total length 34.5 mm at start, c3 onward = treatment days 1,3,5,7,8,9,10,11,12,13,14,15,16,17,18,20,22, T4 (nM) 10,10,10,10,10,10,10,2,1,1,0.2,0.1,0.1,0.1,0.1,0.1,0.1, treatment day 15, T4 0.1 nM): 3
- metamorphosis stage (individual Exp. 5-6, 174 days old, total length 34.5 mm at start, c3 onward = treatment days 1,3,5,7,8,9,10,11,12,13,14,15,16,17,18,20,22, T4 (nM) 10,10,10,10,10,10,10,2,1,1,0.2,0.1,0.1,0.1,0.1,0.1,0.1, treatment day 16, T4 0.1 nM): 3
- metamorphosis stage (individual Exp. 5-6, 174 days old, total length 34.5 mm at start, c3 onward = treatment days 1,3,5,7,8,9,10,11,12,13,14,15,16,17,18,20,22, T4 (nM) 10,10,10,10,10,10,10,2,1,1,0.2,0.1,0.1,0.1,0.1,0.1,0.1, treatment day 17, T4 0.1 nM): 3
- metamorphosis stage (individual Exp. 5-6, 174 days old, total length 34.5 mm at start, c3 onward = treatment days 1,3,5,7,8,9,10,11,12,13,14,15,16,17,18,20,22, T4 (nM) 10,10,10,10,10,10,10,2,1,1,0.2,0.1,0.1,0.1,0.1,0.1,0.1, treatment day 18, T4 0.1 nM): 3
- metamorphosis stage (individual Exp. 5-6, 174 days old, total length 34.5 mm at start, c3 onward = treatment days 1,3,5,7,8,9,10,11,12,13,14,15,16,17,18,20,22, T4 (nM) 10,10,10,10,10,10,10,2,1,1,0.2,0.1,0.1,0.1,0.1,0.1,0.1, treatment day 20, T4 0.1 nM): 3
- metamorphosis stage (individual Exp. 5-6, 174 days old, total length 34.5 mm at start, c3 onward = treatment days 1,3,5,7,8,9,10,11,12,13,14,15,16,17,18,20,22, T4 (nM) 10,10,10,10,10,10,10,2,1,1,0.2,0.1,0.1,0.1,0.1,0.1,0.1, treatment day 22, T4 0.1 nM): 4
- metamorphosis stage (individual Exp. 6-1, 129 days old, total length 40.6 mm at start, c3 onward = treatment days 1,3,5,7,9,10,11,12,13,14,15,16,17,18,19, T4 (nM) 10,10,10,10,2,1,0.2,0.1,0.1,0.1,0.1,0.1,0.1,0.1,0.1, treatment day 1): L
- metamorphosis stage (individual Exp. 6-1, 129 days old, total length 40.6 mm at start, c3 onward = treatment days 1,3,5,7,9,10,11,12,13,14,15,16,17,18,19, T4 (nM) 10,10,10,10,2,1,0.2,0.1,0.1,0.1,0.1,0.1,0.1,0.1,0.1, treatment day 3): 1
- metamorphosis stage (individual Exp. 6-1, 129 days old, total length 40.6 mm at start, c3 onward = treatment days 1,3,5,7,9,10,11,12,13,14,15,16,17,18,19, T4 (nM) 10,10,10,10,2,1,0.2,0.1,0.1,0.1,0.1,0.1,0.1,0.1,0.1, treatment day 5): 1
- metamorphosis stage (individual Exp. 6-1, 129 days old, total length 40.6 mm at start, c3 onward = treatment days 1,3,5,7,9,10,11,12,13,14,15,16,17,18,19, T4 (nM) 10,10,10,10,2,1,0.2,0.1,0.1,0.1,0.1,0.1,0.1,0.1,0.1, treatment day 7): 2
- metamorphosis stage (individual Exp. 6-1, 129 days old, total length 40.6 mm at start, c3 onward = treatment days 1,3,5,7,9,10,11,12,13,14,15,16,17,18,19, T4 (nM) 10,10,10,10,2,1,0.2,0.1,0.1,0.1,0.1,0.1,0.1,0.1,0.1, treatment day 9): 2
- metamorphosis stage (individual Exp. 6-1, 129 days old, total length 40.6 mm at start, c3 onward = treatment days 1,3,5,7,9,10,11,12,13,14,15,16,17,18,19, T4 (nM) 10,10,10,10,2,1,0.2,0.1,0.1,0.1,0.1,0.1,0.1,0.1,0.1, treatment day 10): 2
- metamorphosis stage (individual Exp. 6-1, 129 days old, total length 40.6 mm at start, c3 onward = treatment days 1,3,5,7,9,10,11,12,13,14,15,16,17,18,19, T4 (nM) 10,10,10,10,2,1,0.2,0.1,0.1,0.1,0.1,0.1,0.1,0.1,0.1, treatment day 11): 3
- metamorphosis stage (individual Exp. 6-1, 129 days old, total length 40.6 mm at start, c3 onward = treatment days 1,3,5,7,9,10,11,12,13,14,15,16,17,18,19, T4 (nM) 10,10,10,10,2,1,0.2,0.1,0.1,0.1,0.1,0.1,0.1,0.1,0.1, treatment day 12): 3
- metamorphosis stage (individual Exp. 6-1, 129 days old, total length 40.6 mm at start, c3 onward = treatment days 1,3,5,7,9,10,11,12,13,14,15,16,17,18,19, T4 (nM) 10,10,10,10,2,1,0.2,0.1,0.1,0.1,0.1,0.1,0.1,0.1,0.1, treatment day 13): 3
- metamorphosis stage (individual Exp. 6-1, 129 days old, total length 40.6 mm at start, c3 onward = treatment days 1,3,5,7,9,10,11,12,13,14,15,16,17,18,19, T4 (nM) 10,10,10,10,2,1,0.2,0.1,0.1,0.1,0.1,0.1,0.1,0.1,0.1, treatment day 14): 3
- metamorphosis stage (individual Exp. 6-1, 129 days old, total length 40.6 mm at start, c3 onward = treatment days 1,3,5,7,9,10,11,12,13,14,15,16,17,18,19, T4 (nM) 10,10,10,10,2,1,0.2,0.1,0.1,0.1,0.1,0.1,0.1,0.1,0.1, treatment day 15): 3
- metamorphosis stage (individual Exp. 6-1, 129 days old, total length 40.6 mm at start, c3 onward = treatment days 1,3,5,7,9,10,11,12,13,14,15,16,17,18,19, T4 (nM) 10,10,10,10,2,1,0.2,0.1,0.1,0.1,0.1,0.1,0.1,0.1,0.1, treatment day 16): 3
- metamorphosis stage (individual Exp. 6-1, 129 days old, total length 40.6 mm at start, c3 onward = treatment days 1,3,5,7,9,10,11,12,13,14,15,16,17,18,19, T4 (nM) 10,10,10,10,2,1,0.2,0.1,0.1,0.1,0.1,0.1,0.1,0.1,0.1, treatment day 17): 3
- metamorphosis stage (individual Exp. 6-1, 129 days old, total length 40.6 mm at start, c3 onward = treatment days 1,3,5,7,9,10,11,12,13,14,15,16,17,18,19, T4 (nM) 10,10,10,10,2,1,0.2,0.1,0.1,0.1,0.1,0.1,0.1,0.1,0.1, treatment day 18): 3
- metamorphosis stage (individual Exp. 6-1, 129 days old, total length 40.6 mm at start, c3 onward = treatment days 1,3,5,7,9,10,11,12,13,14,15,16,17,18,19, T4 (nM) 10,10,10,10,2,1,0.2,0.1,0.1,0.1,0.1,0.1,0.1,0.1,0.1, treatment day 19): 4
